Assay type in all cases: functional
Experiment [1] deals with Trichoplusia ni. Kind of experiment: Antifeedant activity against third-instar larval stage of Trichoplusia ni (cabbage looper) infested compound-treated leaf assessed as reduction in feeding damage at 187 mg a.i/L after 48 hr by leaf disk assay relative to untreated control. The arrangement: scale not given: the % may be the effect or the level left.
Experiment [2] concerns Trichoplusia ni. The experiment can be described thus: Antifeedant activity against third-instar larval stage of Trichoplusia ni (cabbage looper) infested compound-treated leaf assessed as time required to stop feeding at 187 mg a.i/L after 48 hr by leaf disk assay (reference value: > 2880 min).
In experiment [3] the test system is Spodoptera exigua. The experiment can be described thus: Antifeedant activity against third-instar larval stage of Spodoptera exigua infested compound-treated leaf assessed as time required to stop feeding at 187 mg a.i/L after 48 hr by leaf disk assay (reference value: > 2880 min).
The subject of experiment [4] is Spodoptera exigua. The experiment can be described thus: Antifeedant activity against third-instar larval stage of Spodoptera exigua infested compound-treated leaf assessed as reduction in feeding damage at 187 mg a.i/L after 48 hr by leaf disk assay relative to untreated control. The arrangement: scale not given: the % may be the effect or the level left.
The test system of experiment [5] is Helicoverpa zea. Kind of experiment: Antifeedant activity against third-instar larval stage of Helicoverpa zea (corn earworm) infested compound-treated leaf assessed as time required to stop feeding at 187 mg a.i/L after 48 hr by leaf disk assay (reference value: > 2880 min).
In experiment [6] the test system is Helicoverpa zea. Kind of experiment: Antifeedant activity against third-instar larval stage of Helicoverpa zea (corn earworm) infested compound-treated leaf assessed as reduction in feeding damage at 187 mg a.i/L after 48 hr by leaf disk assay relative to untreated control. The arrangement: scale not given: the % may be the effect or the level left.
For experiment [7], the system named is Plutella xylostella. The experiment can be described thus: Antifeedant activity against third-instar larval stage of Plutella xylostella (diamondback moth) infested compound-treated leaf assessed as reduction in feeding damage at 3341 mg a.i/L after 48 hr by leaf disk assay relative to untreated control. The arrangement: scale not given: the % may be the effect or the level left.

Experiment [8] relates to Plutella xylostella. Kind of experiment: Antifeedant activity against third-instar larval stage of Plutella xylostella (diamondback moth) infested compound-treated leaf assessed as time required to stop feeding at 3341 mg a.i/L after 48 hr by leaf disk assay (reference value: > 2880 min).
In experiment [9] the test system is Trichoplusia ni. The experiment can be described thus: Antifeedant activity against third-instar larval stage of Trichoplusia ni (cabbage looper) infested compound-treated leaf assessed as time required to stop feeding at 3341 mg a.i/L after 48 hr by leaf disk assay (reference value: > 2880 min).
For experiment [10], the system named is Spodoptera exigua. The experiment can be described thus: Antifeedant activity against third-instar larval stage of Spodoptera exigua infested compound-treated leaf assessed as time required to stop feeding at 3341 mg a.i/L after 48 hr by leaf disk assay (reference value: > 2880 min).
Experiment [11] relates to Spodoptera exigua. The experiment can be described thus: Antifeedant activity against third-instar larval stage of Spodoptera exigua infested compound-treated leaf assessed as reduction in feeding damage at 3341 mg a.i/L after 48 hr by leaf disk assay relative to untreated control. The arrangement: scale not given: the % may be the effect or the level left.
Experiment [12] has as its system Helicoverpa zea. Kind of experiment: Antifeedant activity against third-instar larval stage of Helicoverpa zea (corn earworm) infested compound-treated leaf assessed as time required to stop feeding at 3341 mg a.i/L after 48 hr by leaf disk assay (reference value: > 2880 min).
The test system of experiment [13] is Trichoplusia ni. The experiment can be described thus: Antifeedant activity against third-instar larval stage of Trichoplusia ni (cabbage looper) infested compound-treated leaf assessed as reduction in feeding damage at 3341 mg a.i/L after 48 hr by leaf disk assay relative to untreated control. The arrangement: scale not given: the % may be the effect or the level left.

The subject of experiment [14] is Helicoverpa zea. Kind of experiment: Antifeedant activity against third-instar larval stage of Helicoverpa zea (corn earworm) infested compound-treated leaf assessed as reduction in feeding damage at 3341 mg a.i/L after 48 hr by leaf disk assay relative to untreated control. The arrangement: scale not given: the % may be the effect or the level left.

Turning to `CC(C)[C@H](C(=O)O[C@H](C#N)c1cccc(Oc2ccccc2)c1)c1ccc(Cl)cc1`, the Activity in the experiment with Trichoplusia ni [1], in the experiment with Spodoptera exigua [4] and in the experiment with Helicoverpa zea [6] was 99.9% throughout. Also, the Time in the experiment with Trichoplusia ni [2] is recorded as 5 min; in the experiment on Spodoptera exigua [3] it was 6.4 min; in the experiment with Helicoverpa zea [5], 3.4 min.
Turning to `CNC(=O)ON=C(C)SC` [METHOMYL], the Activity in the experiment with Plutella xylostella [7] was 98.5%; in the experiment with Spodoptera exigua [11], 99.8%; in the experiment with Trichoplusia ni [13], 99.9%; with Helicoverpa zea [14] it was 99.7%. Moreover, the Time in the experiment on Plutella xylostella [8] is reported as 3.6 min; in the experiment with Trichoplusia ni [9], 4.2 min; with Spodoptera exigua [10] it was 5.9 min; in the experiment on Helicoverpa zea [12] it was 3.8 min.

Source of the values: ChEMBL document CHEMBL3044623, “Feeding cessation effects of chlorantraniliprole, a new anthranilic diamide insecticide, in comparison with several insecticides in distinct chemical classes and mode-of-action groups” (2009).
